# Results taken from US8524897B2, “Crystalline oxazine derivative” (Novartis AG, priority 2011, dated 2013).
# Columns and labels:
# [1] = Test 4: Inhibition of cellular release of amyloid peptide 1-40; type: cell-based, Chinese hamster; settings: Cricetulus griseus, CHO, 24 h, mean IC50, Test 4, CHO cells with human APP, read-out: Amyloid-β1-40 release IC50
# Method: (§1) Test 4: Inhibition of Cellular Release of Amyloid Peptide 1-40
# (§2) Chinese hamster ovary cells are transfected with the human gene for amyloid precursor protein. The cells are plated at a density of 8000 cells/well into 96-well microtiter plates and cultivated for 24 hours in DMEM cell culture medium containing 10% FCS. The test compound is added to the cells at various concentrations, and the cells are cultivated for 24 hours in the presence of the test compound. The supernatants are collected, and the concentration of amyloid peptide 1-40 is determined using state of the art immunoassay techniques, for example sandwich ELISA, homogenous time-resolved fluorescence (HTRF) immunoassay, or electro-chemiluminescence immunoassay.
# [2] = Chemical stability of amorphous versus crystalline material exposed to high temperature/humidity for one week (UPLC purity, solid state); type: physicochemical
# Method: Chemical stability of amorphous versus crystalline 5-cyano-3-methyl-pyridine-2-carboxylic acid [3-((3R,6R)-5-amino-3,6-dimethyl-6-trifluoromethyl-3,6-dihydro-2H-[1,4]oxazin-3-yl)-4-fluoro-phenyl]-amide when exposed to high temperature/humidity for one week
# The stability of amorphous versus crystalline 5-cyano-3-methyl-pyridine-2-carboxylic acid [3-((3R,6R)-5-amino-3,6-dimethyl-6-trifluoromethyl-3,6-dihydro-2H-[1,4]oxazin-3-yl)-4-fluoro-phenyl]-amide was tested by exposing the amorphous or crystalline material to high temperature and/or humidity for one week. After storage at high temperature and/or humidity, bulk amorphous or crystalline material was sampled and dissolved in acetonitrile and the purity analysed in a Aquity UPLC from Waters using the following conditions: […]
# [3] = tested on: amyloid peptide 1-40 release from Chinese hamster ovary cells transfected with the human gene for amyloid precursor protein; assay: Test 4: Inhibition of cellular release of amyloid peptide 1-40; type: cell-based; settings: mean IC50, Test 4, CHO cells with human APP, 24 hours; read-out: Amyloid-β1-40 release IC50
# Method: as §1, §2
Structure (SMILES),IC50 [1] [nM],"Purity-% ([2]; 50° C., one week, listed as Amorphous) [%]","Purity-% ([2]; 80° C., one week, listed as Amorphous) [%]","Purity-% ([2]; RT, 0 (start), listed as Amorphous) [%]","Purity-% ([2]; RT, one week) [%]",IC50 [3] [nM],"Purity-% ([2]; 40° C./75% RH, one week) [%]","Solid State ([2]; 40° C./75% RH, one week)","Solid State ([2]; 50° C., one week)","Purity-% ([2]; 50° C., one week, listed as Crystalline) [%]","Solid State ([2]; 80° C., one week, Low = lower peaks when measured by XRPD)","Purity-% ([2]; 80° C., one week, listed as Crystalline) [%]","Solid State ([2]; RT, 0 (start))","Purity-% ([2]; RT, 0 (start), listed as Crystalline) [%]"
"Cc1cc(C#N)cnc1C(=O)Nc1ccc(F)c([C@]2(C)CO[C@@](C)(C(F)(F)F)C(N)=N2)c1 [Example 1 Amorphous, 5-cyano-3-methyl-pyridine-2-carboxylic acid [3-((3R,6R)-5-amino-3,6-dimethyl-6-trifluoromethyl-3,6-dihydro-2H-[1,4]oxazin-3-yl)-4-fluoro-phenyl]-amide]",2.6,91.6,55.8,96.4,96.3,–,–,–,–,–,–,–,–,–
"Cc1cc(C#N)cnc1C(=O)Nc1ccc(F)c([C@]2(C)CO[C@@](C)(C(F)(F)F)C(N)=N2)c1 [Example 1 Crystalline, 5-cyano-3-methyl-pyridine-2-carboxylic acid [3-((3R,6R)-5-amino-3,6-dimethyl-6-trifluoromethyl-3,6-dihydro-2H-[1,4]oxazin-3-yl)-4-fluoro-phenyl]-amide]",–,–,–,–,–,2,98.23,Crystalline,Crystalline,98.05,"Crystalline,",98.01,Crystalline,98.7
